Our source for the EC50 and IC50 values is patent US9540333B2, “Alkyl amide-substituted pyrimidine compounds useful in the modulation of IL-12, IL-23 and/or IFNα” (Bristol-Myers Squibb Company, priority 2012, dated 2017).

Test [1] deals with T1, His-tagged protein corresponding to amino acids 575-869 of human Tyk2 (Homo sapiens, UniProt P29597).
T1 construct: His-tagged protein corresponding to amino acids 575-869 of human Tyk2; made in house
Nature of the test: Probe displacement assay (scintillation proximity, radiolabeled probe). It is filed as binding. The conditions noted are these: 2.5 nM Tyk2 (575-869), 40 nM tritiated probe, 30 minutes at room temperature. The procedure:
The probe displacement assay is conducted as follows: In a […], test compounds along with recombinantly expressed His-tagged protein corresponding to amino acids 575-869 of human Tyk2 (sequence shown below) at 2.5 nM, 40 nM ((R)—N-(1-(3-(8-methyl-5-(methylamino)-8H-imidazo[4,5-d]thiazolo[5,4-b]pyridin-2-yl)phenyl)ethyl)-2-([^3H]methylsulfonyl)benzamide) (preparation described below) and 80 μg/mL Copper His-Tag scintillation proximity assay beads (Perkin Elmer, Catalog #RPNQ0095) in 50 mM HEPES, pH 7.5, containing 100 μg/mL bovine serum albumin and 5% DMSO were incubated for 30 minutes at room temperature. The amount of radiolabeled probe (preparation described below) bound to Tyk2 was then quantified by scintillation counting, and the inhibition by the test compound calculated by comparison to wells either with no inhibitor (0% inhibition) or without Tyk2 (100% inhibition). The IC50 value is defined as the concentration of test compound required to inhibit radiolabeled probe binding by 50%.
Protein Sequence of recombinant Hig-tagged Tyk2 (575-869):
The preparation of radiolabeled probe, (R)—N-(1-(3-(8-methyl-5-(methylamino)-8H-imidazo[4,5-d]thiazolo[5,4-b]pyridin-2-yl)phenyl)ethyl)-2-([^3H]methylsulfonyl)benzamide, was performed as described below.
On the technique in general: SPA uses beads or plates that emit light when radiolabelled molecules are held near them.

Test [2] relates to IL-23 stimulated Kit225 T cells with STAT-dependent luciferase reporter. Nature of the test: Kit225 T cell assay, IL-23 stimulated STAT-dependent luciferase reporter. It is filed as cell-based. The conditions noted are these: 20 ng/mL human recombinant IL-23, 5-6 hours, read-out: IL-23 Kit225 Reporter, LE (IC50). As to the method: (§1) Kit225 T cells with a stably-integrated STAT-dependent luciferase reporter were plated in RPMI (Gibco) containing 10% heat-inactivated FBS (Gibco) and 100 U/mL PenStrep (Gibco). The cells were then stimulated with either 20 ng/mL human recombinant IL-23 or 200 U/mL human recombinant IFNα (PBL InterferonSource) for 5-6 hours. Luciferase expression was measured using the STEADY-GLO® Luciferase Assay System (Promega) according to the manufacturer's instructions. Inhibition data were calculated by comparison to no inhibitor control wells for 0% inhibition and non-stimulated control wells for 100% inhibition. Dose response curves were generated to determine the concentration required to inhibit 50% of cellular response (IC50) as derived by non-linear regression analysis.

In test [3] the test system is IFNα stimulated Kit225 T cells with STAT-dependent luciferase reporter. Nature of the test: Kit225 T cell assay, IFNα stimulated STAT-dependent luciferase reporter. It is filed as cell-based. The conditions noted are these: 200 U/mL human recombinant IFNα, 5-6 hours, read-out: IFNα Kit225 Reporter, LE (IC50). The procedure: as §1

For orientation: EC50 means the concentration needed to bring the measured effect to its halfway point. Read a low EC50 as higher potency in that assay. What is called IC50 is the concentration needed to halve the response being measured.

Molecules are shown by their SMILES.

T1 sequence (P29597 575-869): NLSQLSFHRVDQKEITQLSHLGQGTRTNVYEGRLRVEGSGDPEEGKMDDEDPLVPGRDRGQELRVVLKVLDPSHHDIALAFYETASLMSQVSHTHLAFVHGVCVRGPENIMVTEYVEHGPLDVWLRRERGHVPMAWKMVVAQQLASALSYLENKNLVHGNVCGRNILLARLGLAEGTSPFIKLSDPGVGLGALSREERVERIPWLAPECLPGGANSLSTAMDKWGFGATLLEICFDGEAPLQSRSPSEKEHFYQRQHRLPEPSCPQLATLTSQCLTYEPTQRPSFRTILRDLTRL

Take `CNC(=O)c1cnc(NCC2CC2)nc1Nc1ccccc1S(C)(=O)=O` [Example 1]: in test [1], the midpoint of the response, the EC50, lay at 320 nM. Moreover, the IC50 in test [2] stood at 3400 nM; in test [3] it was 1600 nM.
The corresponding values for `CNC(=O)c1cnc(Nc2ccc(F)cc2)nc1Nc1ccccc1C(N)=O` [Example 2] are 60 nM, 2650 nM and 2790 nM.
In turn, `CNC(=O)c1cnc(Nc2ccc(F)cc2)nc1Nc1ccccc1` [Example 3] showed an EC50 in test [1] of 840 nM. The IC50 was 3510 nM in test [2] and 12500 nM in test [3].
In test [1], `CNC(=O)c1cnc(Nc2ccccc2)nc1Nc1ccccc1` [Example 4] gave an EC50 of 530 nM. The IC50 in test [2] was found to be 8510 nM; in test [3], 9520 nM.
On the same counts, the results for `CNC(=O)c1cnc(Nc2cccc(-c3ccccc3)c2)nc1Nc1ccccc1C(N)=O` [Example 5] are 50 nM, 4660 nM and 3020 nM.
On the same counts, the results for `CNC(=O)c1cnc(Nc2ccc(F)cc2)nc1Nc1cccc(C(N)=O)c1` [Example 6] are 1350 nM, 3540 nM and 12500 nM.
The corresponding values for `CNC(=O)c1cnc(NC2CCC2)nc1Nc1ccccc1C(N)=O` [Example 7] are 110 nM, 9680 nM and 12500 nM.
`CNC(=O)c1cnc(NC2CCCC2)nc1Nc1ccccc1C(N)=O` [Example 8]: in test [1], the EC50 was determined as 120 nM. For the same compound, the IC50 stood at 8280 nM in test [2] and 12500 nM in test [3].
On the same counts, the results for `CNC(=O)c1cnc(Nc2ccc(-c3ccccc3)cc2)nc1Nc1ccccc1C(N)=O` [Example 10] are 70 nM, 1320 nM and 1450 nM.
On the same counts, the results for `CNC(=O)c1cnc(Nc2ccc(F)cc2)nc1Nc1ccccc1S(C)(=O)=O` [Example 11] are 70 nM, 60 nM and 590 nM.
For the compound `CNC(=O)c1cnc(Nc2ccccc2)nc1Nc1ccccc1S(C)(=O)=O` [Example 12], the EC50 in test [1] came out at 30 nM. The results for the IC50 in test [2] and in test [3] were 200 nM and 160 nM, respectively.
On the same counts, the results for `CNC(=O)c1cnc(Nc2ccc(F)c(C)c2)nc1Nc1ccccc1S(C)(=O)=O` [Example 13] are 20 nM, 200 nM and 310 nM.
Compound `CNC(=O)c1cnc(Nc2ccc(F)c(F)c2)nc1Nc1ccccc1S(C)(=O)=O` [Example 14] gave a concentration giving a half-maximal response (EC50) in test [1] of 8.47 nM. Besides, the IC50 in test [2] was determined as 280 nM; in test [3], 460 nM.
